In article PMC6934184, “Selective DNA-PKcs inhibition extends the therapeutic index of localized radiotherapy and chemotherapy” (The Journal of Clinical Investigation, 2019):

Molecular target: T1, EGFR (ErbB1) (Homo sapiens, UniProt P00533)
T1 construct: purchased Thermo Fisher Scientific (Life Technologies) SelectScreen
Assay: SelectScreen Z'LYTE
Format: biochemical
Outline: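 Compound tested in SelectScreen activity assays, Z'LYTE for CSF1R, CDK1/cyclin B and MAP2K6 and Adapta for CAMK1. ATP for CAMK1 was listed as 10, and Km app was used for CSF1R. Results are expressed in percent.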

T1 sequence (P00533 25-1210): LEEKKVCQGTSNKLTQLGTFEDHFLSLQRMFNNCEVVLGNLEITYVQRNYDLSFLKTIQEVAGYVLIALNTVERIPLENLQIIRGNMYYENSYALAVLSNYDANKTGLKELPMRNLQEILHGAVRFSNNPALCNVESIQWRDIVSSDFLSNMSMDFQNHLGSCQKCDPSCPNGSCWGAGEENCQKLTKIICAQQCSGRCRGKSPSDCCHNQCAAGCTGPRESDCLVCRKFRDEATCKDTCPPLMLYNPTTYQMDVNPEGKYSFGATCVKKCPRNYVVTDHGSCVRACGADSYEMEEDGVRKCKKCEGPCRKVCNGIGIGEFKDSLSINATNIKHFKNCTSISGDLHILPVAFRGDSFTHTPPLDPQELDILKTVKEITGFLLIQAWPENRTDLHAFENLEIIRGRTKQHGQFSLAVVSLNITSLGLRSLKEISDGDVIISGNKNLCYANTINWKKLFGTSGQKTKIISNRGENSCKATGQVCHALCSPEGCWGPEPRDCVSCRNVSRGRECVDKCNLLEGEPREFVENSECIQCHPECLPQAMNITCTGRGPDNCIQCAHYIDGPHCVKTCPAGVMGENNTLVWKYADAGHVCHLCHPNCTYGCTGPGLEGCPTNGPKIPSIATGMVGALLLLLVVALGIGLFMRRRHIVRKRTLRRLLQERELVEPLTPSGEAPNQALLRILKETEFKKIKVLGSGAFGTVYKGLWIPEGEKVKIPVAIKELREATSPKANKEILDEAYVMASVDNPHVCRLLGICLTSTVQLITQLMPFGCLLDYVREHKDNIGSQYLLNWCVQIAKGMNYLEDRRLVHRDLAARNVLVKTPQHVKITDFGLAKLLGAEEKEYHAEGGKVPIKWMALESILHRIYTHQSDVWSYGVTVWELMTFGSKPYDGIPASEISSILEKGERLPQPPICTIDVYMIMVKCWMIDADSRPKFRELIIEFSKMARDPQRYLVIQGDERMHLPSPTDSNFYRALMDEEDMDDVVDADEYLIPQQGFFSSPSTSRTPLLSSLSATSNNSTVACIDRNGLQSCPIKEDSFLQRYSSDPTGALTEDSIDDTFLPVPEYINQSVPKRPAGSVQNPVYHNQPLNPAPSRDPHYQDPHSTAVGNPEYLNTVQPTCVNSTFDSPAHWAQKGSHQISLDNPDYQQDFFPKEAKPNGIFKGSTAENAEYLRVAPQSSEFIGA

CN(C(=O)CN1CCOCC1)c1ccc2sc3c(-c4cccc5c(=O)cc(N6CC7CCC(C6)O7)oc45)cccc3c2c1 [NU5455]
inhibition at 1 µM: 6%
